We go through 28 molecules from patent publication US20240376090A1, “ISOXAZOLE DERIVATIVES AS MODULATORS OF THE 5-HT2A SEROTONIN RECEPTOR USEFUL FOR THE TREATMENT OF DISORDERED RELATED THERETO” (Arena Pharmaceuticals, Inc., priority 2020, published 2024).

pIC50, pKi: −log10 of the molar value.

For experiment [1], the target named is T1, 5-HT2A receptor (Homo sapiens (Human), UniProt P28223). Nature of the experiment: Radioligand binding assay ([3H]5-HT competition), 5-HT2A. As to conditions: [3H]5-HT radioligand, membranes of HEK293 cells expressing recombinant 5-HT2A; Ki from IC50 by Cheng-Prusoff; read-out: 5-HT2A serotonin binding Ki value.
Experiment [2] concerns the target T1, 5-HT2A receptor. Nature of the experiment: HTRF IP-One antagonist assay, 5-HT2A. Particulars: HEK293 cells stably expressing recombinant human receptor; IP accumulation with 80 nM 5-HT. The class given is cell-based. The procedure: (§1) HEK293 cells stably expressing 5-HT2 receptors were generated using standard procedures. Cells were dilution cloned and clonal cell lines stably expressing the receptors at low levels were selected for pharmacology studies. In radioligand binding studies using a variety of radiolabeled probes, receptor densities in the 2A, 2B and 2C cell lines were estimated to be 50-70, 150-200, and 10-20 fmol/mg, respectively.
(§2) Inositol phosphate accumulation assays were performed using the HTRF IP-One assay system developed by Cisbio and generally followed the manufacturer's instructions. Briefly, HEK293 cells stably expressing recombinant human receptors were harvested and resuspended in phenol-red free OptiMEM (ThermoFisher), plated into 384-well assay plates (Perkin Elmer, ProxiPlate-Plus® Cat #6008280) at 10,000 cells/well in a volume of 10 μL/well, and incubated overnight at 37° C., 5% CO2. Test compounds were solubilized and serially diluted in DMSO, and then diluted into Assay Buffer (Tris HCl 20 mM, NaCl 150 mM, LiCl 40 mM, pargyline 25 μM, pH 8) containing 80 nM 5-HT. Test compounds were added to the cells (4 μL/well addition, maximal final assay concentration typically 10 μM) and plates, incubated for 2 hrs at 37° C./5% CO2 and then removed from the incubator and allowed to cool to room temperature for 30 minutes prior to addition of IP-One detection reagents. IP-One detection reagents (6 μL/well) were added and plates incubated for 1 hr at room temperature before reading on an HTRF compatible reader such as a Perkin Elmer EnVision® or BMG PheraStar®. Dose-response experiments utilized 10-point curves, typically starting at 10 μM, with 5-fold serial dilutions. Experiments were performed with triplicate data points and independent replicate experiments were performed to ensure data consistency.

Another experiment addresses 5-HT2B receptor (Homo sapiens (Human), UniProt P41595). Nature of the experiment: HTRF IP-One antagonist assay, 5-HT2B. Particulars: HEK293 cells stably expressing recombinant human receptor; IP accumulation with 80 nM 5-HT. The class given is cell-based. The method, then: as §1, §2
(TR-FRET usually uses a lanthanide donor and a delayed reading to cut background.)

Sequence of 5-HT2B receptor (P41595 whole entry): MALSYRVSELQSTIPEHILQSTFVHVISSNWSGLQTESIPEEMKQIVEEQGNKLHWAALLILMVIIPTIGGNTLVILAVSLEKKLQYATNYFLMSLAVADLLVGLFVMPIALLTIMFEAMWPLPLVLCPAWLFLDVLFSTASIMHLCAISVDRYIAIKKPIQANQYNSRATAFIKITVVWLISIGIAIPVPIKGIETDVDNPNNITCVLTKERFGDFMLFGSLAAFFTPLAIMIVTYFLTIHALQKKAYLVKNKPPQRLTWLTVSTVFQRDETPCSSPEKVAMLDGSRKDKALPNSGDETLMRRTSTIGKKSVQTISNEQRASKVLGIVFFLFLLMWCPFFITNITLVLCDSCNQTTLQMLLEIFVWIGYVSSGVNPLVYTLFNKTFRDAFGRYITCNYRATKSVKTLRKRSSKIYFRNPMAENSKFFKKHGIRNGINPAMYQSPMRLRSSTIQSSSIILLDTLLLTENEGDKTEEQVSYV
T1 sequence (P28223 whole entry): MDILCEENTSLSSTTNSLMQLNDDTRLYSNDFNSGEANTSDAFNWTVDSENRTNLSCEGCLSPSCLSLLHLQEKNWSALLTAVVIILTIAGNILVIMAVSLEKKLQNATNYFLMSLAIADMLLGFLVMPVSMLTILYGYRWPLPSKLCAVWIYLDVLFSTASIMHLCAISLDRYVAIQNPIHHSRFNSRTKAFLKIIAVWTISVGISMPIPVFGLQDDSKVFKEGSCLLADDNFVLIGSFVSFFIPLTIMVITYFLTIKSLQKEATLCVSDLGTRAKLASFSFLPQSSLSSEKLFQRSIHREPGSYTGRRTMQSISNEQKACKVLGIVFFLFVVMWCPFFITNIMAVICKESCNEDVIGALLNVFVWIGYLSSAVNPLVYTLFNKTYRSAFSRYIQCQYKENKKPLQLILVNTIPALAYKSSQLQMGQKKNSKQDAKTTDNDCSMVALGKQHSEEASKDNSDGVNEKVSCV

In the case of `Cc1noc(C)c1-c1cc(NC(=O)c2ccc(F)cc2)ccc1OCCN1CCC1` [Compound 121, N-(4-(2-(azetidin-1-yl)ethoxy)-3-(3,5-dimethylisoxazol-4-yl)phenyl)-4-fluorobenzamide], the pKi at 5-HT2A receptor [1] was 8.33. Moreover, at 5-HT2A receptor [2], the pIC50 was 7.53.
The like results for `COc1cccc(C(=O)Nc2ccc(OCCN3CCC3)c(-c3c(C)noc3C)c2)c1` [Compound 122, N-(4-(2-(azetidin-1-yl)ethoxy)-3-(3,5-dimethylisoxazol-4-yl)phenyl)-3-methoxybenzamide] were, in that order, 8.57 and 8.05.
For the molecule `Cc1noc(C)c1-c1cc(NC(=O)Cc2cccc(F)c2)ccc1OCCN1CCC1` [Compound 125, N-(4-(2-(azetidin-1-yl)ethoxy)-3-(3,5-dimethylisoxazol-4-yl)phenyl)-2-(3-fluorophenyl)acetamide], the pKi at 5-HT2A receptor [1] is 8.35. The pIC50 at 5-HT2B receptor is at most 4.00; on 5-HT2A receptor [2], 7.42.
The like results for `Cc1noc(C)c1-c1cc(NC(=O)C2CC2)ccc1OC1CNC1` [Compound 172, N-(4-(azetidin-3-yloxy)-3-(3,5-dimethylisoxazol-4-yl)phenyl)cyclopropanecarboxamide] were, in that order, 8.19, at most 4.00 and 6.96.
The like results for `Cc1noc(C)c1-c1cc(NC(=O)[C@@H]2C[C@@H]2F)ccc1OC[C@H]1CCCCN1` [Compound 192, (1S,2S)—N-(3-(3,5-dimethylisoxazol-4-yl)-4-(((R)-piperidin-2-yl)methoxy)phenyl)-2-fluorocyclopropane-1-carboxamide] were, in that order, 8.31, at most 4.00 and 7.51.
For `Cc1noc(C)c1-c1cc(NC(=O)C2CC23CCOCC3)ccc1OC[C@H]1CCCCN1` (stereo partly drawn) [Compound 203, N-(3-(3,5-dimethylisoxazol-4-yl)-4-(((R)-piperidin-2-yl)methoxy)phenyl)-6-oxaspiro[2.5]octane-1-carboxamide], at 5-HT2A receptor [1], the pKi was 7.56.
As for `COCC1(C(=O)Nc2ccc(OC[C@H]3CCCCN3)c(-c3c(C)noc3C)c2)CC1` [Compound 204, (R)—N-(3-(3,5-dimethylisoxazol-4-yl)-4-(piperidin-2-ylmethoxy)phenyl)-1-(methoxymethyl)cyclopropane-1-carboxamide], the pKi at 5-HT2A receptor [1] is 7.60.
`COC1(CC(=O)Nc2ccc(OC[C@H]3CCCCN3)c(-c3c(C)noc3C)c2)CCC1` [Compound 205, (R)—N-(3-(3,5-dimethylisoxazol-4-yl)-4-(piperidin-2-ylmethoxy)phenyl)-2-(1-methoxycyclobutyl)acetamide]: at 5-HT2A receptor [1], the pKi is 6.98.
The same measure, in the same setting: next, `Cc1noc(C)c1-c1cc(NC(=O)C(F)c2ccccc2)ccc1OC[C@H]1CCCCN1` (stereo partly drawn) [Compound 206, N-(3-(3,5-dimethylisoxazol-4-yl)-4-(((R)-piperidin-2-yl)methoxy)phenyl)-2-fluoro-2-phenylacetamide]: 8.47; `Cc1nc(C)c(C(=O)Nc2ccc(OC[C@H]3CCCCN3)c(-c3c(C)noc3C)c2)o1` [Compound 207, (R)—N-(3-(3,5-dimethylisoxazol-4-yl)-4-(piperidin-2-ylmethoxy)phenyl)-2,4-dimethyloxazole-5-carboxamide]: 6.63.
Same read-out and setting: next, `Cc1cnn(C)c1C(=O)Nc1ccc(OC[C@H]2CCCCN2)c(-c2c(C)noc2C)c1` [Compound 208, (R)—N-(3-(3,5-dimethylisoxazol-4-yl)-4-(piperidin-2-ylmethoxy)phenyl)-1,4-dimethyl-1H-pyrazole-5-carboxamide]: 8.02; `CCc1cc(C(=O)Nc2ccc(OC[C@H]3CCCCN3)c(-c3c(C)noc3C)c2)n(C)n1` [Compound 209, (R)—N-(3-(3,5-dimethylisoxazol-4-yl)-4-(piperidin-2-ylmethoxy)phenyl)-3-ethyl-1-methyl-1H-pyrazole-5-carboxamide]: 7.44; `Cc1nc(C(=O)Nc2ccc(OC[C@H]3CCCCN3)c(-c3c(C)noc3C)c2)c(C)s1` [Compound 210, (R)—N-(3-(3,5-dimethylisoxazol-4-yl)-4-(piperidin-2-ylmethoxy)phenyl)-2,5-dimethylthiazole-4-carboxamide]: 7.06.
Still for that read-out and setting: for `Cc1noc(C)c1-c1cc(NC(=O)c2cnn(C)c2C)ccc1OC[C@H]1CCCCN1` [Compound 211, (R)—N-(3-(3,5-dimethylisoxazol-4-yl)-4-(piperidin-2-ylmethoxy)phenyl)-1,5-dimethyl-1H-pyrazole-4-carboxamide] the value was 7.39; for `Cc1noc(C)c1-c1cc(NC(=O)c2ncnn2C)ccc1OC[C@H]1CCCCN1` [Compound 212, (R)—N-(3-(3,5-dimethylisoxazol-4-yl)-4-(piperidin-2-ylmethoxy)phenyl)-1-methyl-1H-1,2,4-triazole-5-carboxamide], 7.41; for `Cc1noc(C)c1-c1cc(NC(=O)Cc2nccs2)ccc1OC[C@H]1CCCCN1` [Compound 213, (R)—N-(3-(3,5-dimethylisoxazol-4-yl)-4-(piperidin-2-ylmethoxy)phenyl)-2-(thiazol-2-yl)acetamide], 8.33.
`Cc1cnsc1C(=O)Nc1ccc(OC[C@H]2CCCCN2)c(-c2c(C)noc2C)c1` [Compound 214, (R)—N-(3-(3,5-dimethylisoxazol-4-yl)-4-(piperidin-2-ylmethoxy)phenyl)-4-methylisothiazole-5-carboxamide]: the pKi at 5-HT2A receptor [1] was 8.52.
Still for that read-out and setting: next, `Cc1nnsc1C(=O)Nc1ccc(OC[C@H]2CCCCN2)c(-c2c(C)noc2C)c1` [Compound 215, (R)—N-(3-(3,5-dimethylisoxazol-4-yl)-4-(piperidin-2-ylmethoxy)phenyl)-4-methyl-1,2,3-thiadiazole-5-carboxamide]: 7.74; `Cc1nc(C(=O)Nc2ccc(OC[C@H]3CCCCN3)c(-c3c(C)noc3C)c2)c(C)o1` [Compound 216, (R)—N-(3-(3,5-dimethylisoxazol-4-yl)-4-(piperidin-2-ylmethoxy)phenyl)-2,5-dimethyloxazole-4-carboxamide]: 6.53; `COc1ccc(CC(=O)Nc2ccc(OC[C@H]3CCCCN3)c(-c3c(C)noc3C)c2)cc1` [Compound 224, (R)—N-(3-(3,5-dimethylisoxazol-4-yl)-4-(piperidin-2-ylmethoxy)phenyl)-2-(4-methoxyphenyl)acetamide]: 8.82.
Take `Cc1noc(C)c1-c1cc(NC(=O)Cc2ccc(F)cn2)ccc1OC[C@H]1CCCCN1` [Compound 227, (R)—N-(3-(3,5-dimethylisoxazol-4-yl)-4-(piperidin-2-ylmethoxy)phenyl)-2-(5-fluoropyridin-2-yl)acetamide]: the negative-log Ki (pKi) at 5-HT2A receptor [1] is 7.04.
Same read-out and setting: for `COC1(CC(=O)Nc2ccc(OC[C@H]3CCCCN3)c(-c3c(C)noc3C)c2)CC1` [Compound 228, (R)—N-(3-(3,5-dimethylisoxazol-4-yl)-4-(piperidin-2-ylmethoxy)phenyl)-2-(1-methoxycyclopropyl)acetamide] the value was 7.18.
Still for that read-out and setting: next, `Cc1nc(C(C)C)sc1C(=O)Nc1ccc(OC[C@H]2CCCCN2)c(-c2c(C)noc2C)c1` [Compound 231, (R)—N-(3-(3,5-dimethylisoxazol-4-yl)-4-(piperidin-2-ylmethoxy)phenyl)-2-isopropyl-4-methylthiazole-5-carboxamide]: 7.77; `Cc1noc(C)c1-c1cc(NC(=O)C2(F)CC2)ccc1O[C@@H]1CCCNC1` [Compound 235, (R)—N-(3-(3,5-dimethylisoxazol-4-yl)-4-(piperidin-3-yloxy)phenyl)-1-fluorocyclopropane-1-carboxamide]: 7.34.
On the same count and under the same terms, for `Cc1noc(C)c1-c1cc(N(C)C(=O)C2CC2)ccc1OC[C@H]1CCCCN1` [Compound 236, N-[3-(3,5-dimethylisoxazol-4-yl)-4-[[(2R)-2-piperidyl]methoxy]phenyl]-N-methyl-cyclopropanecarboxamide] the value was 4.19; for `COCCNCCOc1ccc(NC(=O)C2(F)CC2)cc1-c1c(C)noc1C` [Compound 237, N-[3-(3,5-dimethylisoxazol-4-yl)-4-[2-(2-methoxyethylamino)ethoxy]phenyl]-1-fluoro-cyclopropanecarboxamide], 8.94.
With `Cc1noc(C)c1-c1cc(NC(=O)C2(F)CC2)ccc1O[C@H]1CCNC1` [Compound 239, (S)—N-(3-(3,5-dimethylisoxazol-4-yl)-4-(pyrrolidin-3-yloxy)phenyl)-1-fluorocyclopropane-1-carboxamide], the pKi at 5-HT2A receptor [1] is 7.23.
Still for that read-out and setting: next, “N-(4-(2-(azetidin-1-yl)ethoxy)-3-(3,5-dimethylisoxazol-4-yl)phenyl)-2-(5-fluoropyridin-2-yl)acetamide [Compound 129]”: 6.74.

Broadly, the pKi is the negative decadic logarithm of the Ki, by convention in mol/L. A word on the pIC50: it is the negative decadic logarithm of the IC50, by convention in mol/L.
